Laboratory results from patent US10183021B2, “sGC stimulators” (Ironwood Pharmaceuticals, Inc., priority 2013, dated 2019).

The compounds below were run against soluble guanylate cyclase (sGC) (Homo sapiens (Human), UniProt Q02108+Q02153) (assay: sGC-HEK-cGMP assay, new protocol with DETA-NONOate, LC/MS detection (Example 2C)). Settings: read-out: Absolute EC50 (uM) - binned.
Format: cell-based
Procedure: Human embryonic kidney cells (HEK293), endogenously expressing soluble guanylate cyclase (sGC), were used to evaluate the activity of test compounds. Compounds stimulating the sGC enzyme should cause an increase in the intracellular concentration of cGMP. HEK 293 cells were seeded in Dulbecco's Modification of Eagle's Medium supplemented with fetal bovine serum (10% final) and penicillin (100 U/mL)/streptomycin (100 μg/mL) in a 50 μL volume at a density of 1.5×10^4 cells/well in a poly-D-lysine coated 384 well flat bottom plate. Cells were incubated overnight at 37° C. in a humidified chamber with 5% CO2. Medium was aspirated and cells were washed with 1× Hank's Buffered Saline Salt Solution (50 μL). Cells were then incubated for 15 minutes at 37° C. with 50 μL of a 0.5 mM 3-isobutyl-1-methylxanthine (IBMX) solution. Test article and Diethylenetriamine NONOate (DETA-NONOate) solutions (x μM concentration for test article solution and 10 μM concentration for DETA-NONOate solution; wherein x is one of the following concentrations);
were then added to the assay mixture and the resulting mixture incubated at 37° C. for 20 minutes. After the 20 minute incubation, the assay mixture was aspirated and 10% acetic acid containing 150 ng/mL+3-cGMP (internal standard for LCMS) (50 μL) was added to the cells. The plate was incubated at 4° C. for 30 minutes in the acetic acid solution to stop the reaction and lyse the cells. The plates were then centrifuged at 1,000 g for 3 minutes at 4° C. and the supernatant transferred to a clean reaction plate for LCMS analysis.
cGMP concentrations were determined from each sample using the LCMS conditions below (Table 5) and calculated standard curve.
Data were normalized to a high control using the following equation: 100*(Sample−Low Control)/(High Control−Low Control), where the low control is the average of 16 samples treated with 1% DMSO, and the high control is the average of 16 samples treated with 30 μM of 1-329 Data were fit using a 4-parameter fit (log(agonist) vs. response—variable slope) using GraphPad Prism Software v.5. n=2 for all compounds. […] Compounds failing to elicit a minimum response of 50% are reported as >30 μM.

Chain of soluble guanylate cyclase (sGC) (Q02153 whole entry): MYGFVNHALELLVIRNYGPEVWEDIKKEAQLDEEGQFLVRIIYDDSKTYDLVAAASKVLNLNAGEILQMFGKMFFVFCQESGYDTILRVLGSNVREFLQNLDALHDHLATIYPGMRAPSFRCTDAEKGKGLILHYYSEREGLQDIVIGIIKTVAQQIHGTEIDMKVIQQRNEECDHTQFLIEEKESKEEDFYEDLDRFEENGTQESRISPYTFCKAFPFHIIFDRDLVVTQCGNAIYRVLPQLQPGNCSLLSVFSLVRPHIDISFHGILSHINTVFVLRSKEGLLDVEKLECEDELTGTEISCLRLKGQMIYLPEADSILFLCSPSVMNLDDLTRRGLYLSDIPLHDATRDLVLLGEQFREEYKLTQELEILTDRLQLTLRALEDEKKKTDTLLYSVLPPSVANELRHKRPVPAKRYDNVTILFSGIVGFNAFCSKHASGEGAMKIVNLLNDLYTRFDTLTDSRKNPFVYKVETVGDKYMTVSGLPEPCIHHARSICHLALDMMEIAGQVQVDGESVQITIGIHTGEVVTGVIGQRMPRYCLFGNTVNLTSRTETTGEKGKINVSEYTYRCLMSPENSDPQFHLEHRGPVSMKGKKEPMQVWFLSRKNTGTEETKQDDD
Chain of soluble guanylate cyclase (sGC) (Q02108 whole entry): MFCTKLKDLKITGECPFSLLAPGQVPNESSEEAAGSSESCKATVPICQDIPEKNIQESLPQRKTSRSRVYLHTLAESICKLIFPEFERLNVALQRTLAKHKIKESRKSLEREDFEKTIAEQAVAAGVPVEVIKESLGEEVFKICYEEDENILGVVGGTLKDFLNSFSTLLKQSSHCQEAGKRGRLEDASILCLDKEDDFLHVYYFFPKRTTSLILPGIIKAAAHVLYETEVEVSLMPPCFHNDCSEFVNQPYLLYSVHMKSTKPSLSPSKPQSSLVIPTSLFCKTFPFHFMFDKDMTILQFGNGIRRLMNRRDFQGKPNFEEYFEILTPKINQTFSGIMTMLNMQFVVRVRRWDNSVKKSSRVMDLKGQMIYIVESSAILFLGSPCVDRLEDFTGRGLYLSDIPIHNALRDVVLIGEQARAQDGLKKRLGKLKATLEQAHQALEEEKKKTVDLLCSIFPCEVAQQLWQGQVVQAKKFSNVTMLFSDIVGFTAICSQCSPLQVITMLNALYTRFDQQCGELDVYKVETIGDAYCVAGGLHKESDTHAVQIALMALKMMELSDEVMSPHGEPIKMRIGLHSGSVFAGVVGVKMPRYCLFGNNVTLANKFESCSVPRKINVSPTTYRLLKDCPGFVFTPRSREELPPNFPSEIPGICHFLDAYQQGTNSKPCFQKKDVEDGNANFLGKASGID

Compound	EC50 [µM]
OCCCNc1nc(-c2cc(-c3ccon3)n(Cc3ccccc3F)n2)ncc1F [Compound I-408]	< 0.1
O=C(O)c1cc(-c2ncc(F)c(NCC(O)(C(F)(F)F)C(F)(F)F)n2)nn1Cc1ccccc1F [Compound I-476]	> 1
CC1(C(N)=O)C(=O)Nc2nc(-c3cc(-c4ccon4)n(Cc4ccccc4F)n3)nc(N)c21 (stereo not drawn) [Compound I-421]	0.101 to 1
O=C(O)C12CC1CCCN2c1nc(-c2cc(-c3ccon3)n(Cc3ccccc3F)n2)ncc1F (stereo not drawn) [Compound I-308]	0.101 to 1
CN(C[C@H](O)CO)c1nc(-c2cc(-c3ccon3)n(Cc3ccccc3F)n2)ncc1F [Compound I-320]	< 0.1
CC1(C(=O)NC2CC2)C(=O)Nc2nc(-c3cc(-c4ccon4)n(Cc4ccccc4F)n3)nc(N)c21 (stereo not drawn) [Compound I-422]	0.101 to 1
O=C(NC1CN(c2nc(-c3cc(-c4ccon4)n(Cc4ccccc4F)n3)ncc2F)C1)C1(O)CC1 [Compound I-440]	0.101 to 1
OC1(C(F)(F)F)CN(c2nc(-c3cc(-c4ccon4)n(Cc4ccccc4F)n3)ncc2F)C1 [Compound I-396]	< 0.1
CC(=O)c1cc(-c2ncc(F)c(O)n2)nn1Cc1ccccc1F [Compound I-450]	> 1
Oc1n[nH]c2c1CN(c1nc(-c3cc(-c4ccon4)n(Cc4ccccc4F)n3)ncc1F)CC2 [Compound I-631]	< 0.1
CCOCC(=O)Nc1ccnc(-c2cc(-c3ccon3)n(Cc3ccccc3F)n2)n1 [Compound I-562]	0.101 to 1
O=C1C(O)CCN1c1nc(-c2cc(-c3ccon3)n(Cc3ccccc3F)n2)ncc1F (stereo not drawn) [Compound I-615]	> 1
NC(=O)C1(CNc2nc(-c3cc(-c4ccon4)n(Cc4ccccc4F)n3)ncc2F)CC1 [Compound I-515]	< 0.1
O=C(CN1C(=O)c2ccccc2C1=O)Nc1ccnc(-c2cc(-c3ccon3)n(Cc3ccccc3F)n2)n1 [Compound I-596]	> 1
CC(C(=O)Nc1nc(-c2cc(-c3ccon3)n(Cc3ccccc3F)n2)ncc1F)S(C)(=O)=O (stereo not drawn) [Compound I-589]	0.101 to 1
NC(=O)CCNc1nc(-c2cc(-c3ccon3)n(Cc3ccccc3F)n2)ncc1F [Compound I-581]	< 0.1
CC(C)(C)OC(=O)NCC(=O)Nc1ccnc(-c2cc(-c3ccon3)n(Cc3ccccc3F)n2)n1 [Compound I-519]	0.101 to 1
CC(=O)OC(C(=O)Nc1ccnc(-c2cc(-c3ccon3)n(Cc3ccccc3F)n2)n1)c1ccccc1 (stereo not drawn) [Compound I-565]	0.101 to 1
CS(=O)(=O)CS(=O)(=O)Nc1ccnc(-c2cc(-c3ccon3)n(Cc3ccccc3F)n2)n1 [Compound I-472]	> 1
O=C(Nc1ccnc(-c2cc(-c3ccon3)n(Cc3ccccc3F)n2)n1)C1(C(F)(F)F)CC1 [Compound I-328]	> 1
O=C(CN1CCOC1=O)Nc1ccnc(-c2cc(-c3ccon3)n(Cc3ccccc3F)n2)n1 [Compound I-600]	0.101 to 1

Compound	EC50 [µM]
Oc1n[nH]c2c1CCN(c1nc(-c3cc(-c4ccon4)n(Cc4ccccc4F)n3)ncc1F)C2 [Compound I-370]	< 0.1
CN(CC1(C(=O)O)CC1)c1nc(-c2cc(-c3ccon3)n(CCC(F)(F)F)n2)ncc1F [Compound I-523]	> 1
CCCS(=O)(=O)Nc1nc(-c2cc(-c3ccon3)n(Cc3ccccc3F)n2)ncc1F [Compound I-611]	0.101 to 1
CCOC(=O)C1(C)C(=O)Nc2nc(-c3cc(-c4ccon4)n(Cc4ccccc4F)n3)nc(N)c21 (stereo not drawn) [Compound I-420]	< 0.1
CC1(C)CCC(C(=O)O)N(c2nc(-c3cc(-c4ccon4)n(Cc4ccccc4F)n3)ncc2F)C1 (stereo not drawn) [Compound I-268]	< 0.1
CN(CC(C)(O)C(N)=O)c1nc(-c2cc(-c3ccon3)n(Cc3ccccc3F)n2)ncc1F (stereo not drawn) [Compound I-393]	0.101 to 1
CN(CC1(C(=O)O)CC1)c1nc(-c2cc(-c3nccs3)n(Cc3ccccc3F)n2)ncc1F [Compound I-343]	< 0.1
CC1(C(=O)O)CCN(c2nc(-c3cc(-c4ccon4)n(Cc4ccccc4F)n3)ncc2F)C1=O (stereo not drawn) [Compound I-604]	0.101 to 1
NC(=O)C(O)CNc1nc(-c2cc(-c3ccon3)n(Cc3ccccc3F)n2)ncc1F (stereo not drawn) [Compound I-443]	0.101 to 1
O=S(=O)(CCC(F)(F)F)Nc1cnc(-c2cc(-c3ccon3)n(Cc3ccccc3F)n2)nc1 [Compound I-595]	0.101 to 1
O=S(=O)(C1CCN(c2nc(-c3cc(-c4ccon4)n(Cc4ccccc4F)n3)ncc2F)CC1)N1CCOCC1 [Compound I-423]	< 0.1
Nc1nc(-c2cc(-c3ccon3)n(Cc3ccccc3F)n2)nc2c1CS(=O)(=O)C2 [Compound I-632]	> 1
COC(C(=O)Nc1ccnc(-c2cc(-c3ccon3)n(Cc3ccccc3F)n2)n1)(c1ccccc1)C(F)(F)F (stereo not drawn) [Compound I-572]	> 1
CN(CC(C)(C)C(=O)O)c1nc(-c2cc(-c3ccon3)n(Cc3ccccc3F)n2)ncc1F [Compound I-383]	< 0.1
O=C(O)c1ccc(CNc2nc(-c3cc(-c4ccon4)n(Cc4ccccc4F)n3)ncc2F)s1 [Compound I-448]	0.101 to 1
O=C(Nc1nc(-c2cc(-c3ccon3)n(Cc3ccccc3F)n2)ncc1F)N1CCOCC1 [Compound I-477]	> 1
CS(=O)(=O)CCC(=O)Nc1ccnc(-c2cc(-c3ccon3)n(Cc3ccccc3F)n2)n1 [Compound I-573]	0.101 to 1
O=C1CC(Nc2nc(-c3cc(-c4ccon4)n(Cc4ccccc4F)n3)ncc2F)CN1 (stereo not drawn) [Compound I-485]	< 0.1
CC(C)[C@H](CN(C)c1nc(-c2cc(-c3ccon3)n(Cc3ccccc3F)n2)ncc1F)NS(=O)(=O)C1CC1 [Compound I-344]	< 0.1
OCC(F)(F)CNc1nc(-c2cc(-c3ccon3)n(Cc3ccccc3F)n2)ncc1F [Compound I-521]	< 0.1
OCC(CO)(CO)Nc1nc(-c2cc(-c3ccon3)n(Cc3ccccc3F)n2)ncc1F [Compound I-334]	0.101 to 1

Compound	EC50 [µM]
NC(=O)C(O)(CNc1ccnc(-c2cc(-c3ccon3)n(Cc3ccccc3F)n2)n1)C(F)(F)F (stereo not drawn) [Compound I-627]	0.101 to 1
COC(=O)N(C)c1c(N)nc(-c2cc(-c3ccon3)n(Cc3ccccc3F)n2)nc1N [Compound I-621]	> 1
CN(CC(O)(C(F)(F)F)C(F)(F)F)c1nc(-c2cc(-c3ccon3)n(Cc3ccccc3F)n2)ncc1F [Compound I-529]	> 1
COC(=O)Nc1nc(-c2cc(-c3ccon3)n(Cc3ccccc3F)n2)ncc1[N+](=O)[O-] [Compound I-541]	> 1
CS(=O)(=O)CC(=O)Nc1ccnc(-c2cc(-c3ccon3)n(Cc3ccccc3F)n2)n1 [Compound I-563]	> 1
O=S(=O)(Cc1ccc(F)cc1)Nc1ccnc(-c2cc(-c3ccon3)n(Cc3ccccc3F)n2)n1 [Compound I-491]	0.101 to 1
COC(=O)Nc1c(N)nc(-c2cc(-c3ccon3)n(Cc3ccccc3F)n2)nc1N [Compound I-620]	> 1
O=C(O)C(O)(CNc1nc(-c2cc(-c3ccon3)n(Cc3cccc(F)c3F)n2)ncc1F)C(F)(F)F (stereo not drawn) [Compound I-489]	> 1
CC1(C(=O)Nc2ccnc(-c3cc(-c4ccon4)n(Cc4ccccc4F)n3)n2)Cc2ccccc2S1(=O)=O (stereo not drawn) [Compound I-594]	> 1
O=C(O)[C@@H]1CN(c2nc(-c3cc(-c4ccon4)n(Cc4ccccc4F)n3)ncc2F)C[C@H]1C(F)(F)F [Compound I-424]	< 0.1
O=S(=O)(CCNc1nc(-c2cc(-c3ccon3)n(Cc3ccccc3F)n2)ncc1F)NCCO [Compound I-439]	< 0.1
COC(=O)[C@@H]1CCC(=O)N1c1nc(-c2cc(-c3ccon3)n(Cc3ccccc3F)n2)ncc1F [Compound I-401]	> 1
Cc1nnc(CNc2nc(-c3cc(-c4ccon4)n(Cc4ccccc4F)n3)ncc2F)o1 [Compound I-496]	< 0.1
O=C1C=C(O)CN(c2nc(-c3cc(-c4ccon4)n(Cc4ccccc4F)n3)ncc2F)C1 [Compound I-433]	> 1
O=C(O)CC(Nc1nc(-c2cc(-c3ccon3)n(Cc3ccccc3F)n2)ncc1F)C(F)(F)F (stereo not drawn) [Compound I-418]	0.101 to 1
N#CC1(C(=O)Nc2ccnc(-c3cc(-c4ccon4)n(Cc4ccccc4F)n3)n2)CC1 [Compound I-551]	> 1
Nc1nc(-c2cc(-c3ccon3)n(CCC(F)(F)F)n2)ncc1F [Compound I-513]	> 1
O=C(O)c1cccc(CCNc2nc(-c3cc(-c4ccon4)n(Cc4ccccc4F)n3)ncc2F)c1 [Compound I-377]	< 0.1
O=c1[nH]nc(CNc2nc(-c3cc(-c4ccon4)n(Cc4ccccc4F)n3)ncc2F)[nH]1 [Compound I-441]	0.101 to 1
OC[C@@H]1C[C@@H](O)CN1c1nc(-c2cc(-c3ccon3)n(Cc3ccccc3F)n2)ncc1F [Compound I-435]	< 0.1
OC(CNc1nc(-c2cc(-c3ccon3)n(Cc3cccc(F)c3F)n2)ncc1F)(C(F)(F)F)C(F)(F)F [Compound I-488]	0.101 to 1
